The record followed here is patent US4698431A, “Hydroxypyridonate chelating agents” (priority 1985, dated 1987).

Values joined by “and” are separate entries in the source; they are usually repeats but may differ in a detail not shown here. Equal entries are not always repeated. “Also recorded” adds a separate entry of the source.

Data set [1] in a line: Acute toxicity in mice, single i.p. injection. The note with it: mouse, in vivo, ip, Table 3, 1000 (*) or 500 (**) μmole/kg, read-out: acute toxicity (asterisk), lethality in 7 days. As to the method: A test of acute toxicity was also carried out, as follows. Two mice were each given a single i.p. injection of 100, 500, or 1000 μmole/kg of ligand dissolved in 0.5 to 1.0 ml of saline at pH=7.5. Sparingly soluble ligands, dispersed by sonication, were given as finely divided suspensions. After 7 days observation, the mice were killed, selected tissues were removed and fixed for histopathological examination, and unusual findings at autopsy were recorded.
^a Single or double asterisks indicate acutely toxic (50% to 100%
lethality) in 7 days after a single i.p. injection of 1000 or 500
μmole/kg, respectively.

Data set [2] in a line: Relative iron-binding ability (pM value) by binding competition with EDTA. As to the method: (§1) Removal of Iron From Transferrin: The effectiveness of 3HOPOCAM as a ferri ion chelator was evaluated in terms of its potential for removing iron from transferrin. In order to account for the effect of proton competitio in the ligand strength comparisons, the relative ironbinding abilities of the ligands were ranked by the pM value, defined as -log [Fe^+3 ] of pH 7.4 solution that is 10^-5 M in total ligand and 10^-6 M in total iron. The pM for 3HOPOCAM was determined (by binding competition experiments with EDTA) to be 21.7, about 4 to 14 units lower than the pM value for siderophores containing three bidentate catechol or hydroxamate groups. […] Ligands incorporating more than two "HOPO" groups should be effective in removing iron from transferrin at even lower concentrations.

The test system of a further data set is transferrin. Nature of the data set: Removal of iron from transferrin. It is filed as biochemical. The procedure:
as §1

Data set [3] is described as follows: Promotion of excretion of ^238 Pu(IV) in mice. It is filed as in vivo. The conditions noted are these: for Pu / actinide removal, in words: mouse, in vivo. As to the method:
The novel chelating agents of the present invention were tested for their effectiveness in promoting excretion of ^238 Pu(IV) in mice as follows. Groups of five mice each received an intravenous injection of […] of ^238 Pu(IV) in citrate buffer, 9250 Bq/kg body wt. One hour later 30 μmole/kg of ligand (120 μmole/kg of monomeric ligands) was injected intraperitoneally in 0.5 ml of saline. The mice were killed 24 h after the Pu injection, frozen, and dissected after partial thawing. The ^238 Pu in skeleton, tissues, and separated excreta was determined by counting of the ^234 U L xrays.
^c Ligand was administered (30 μmole/kg, i.p.) at 1 hr and mice
were killed at 24 hr after injection (i.v.) of ^238 Pu(IV) citrate.
Dosage of monomers, HOPO--CO2 H and HOPO--COMe2, was 120

A short description of data set [4]: Iron removal bioassay in iron-loaded (transfused) mice. It is filed as in vivo. The procedure: DFHOPOCAM was tested for its effectiveness in removing iron from iron-loaded mice. The mice tested had undergone three transfusions over five days of heat-treated canine red blood cells. Both low i.p. doses (about 20 mg/kg) and high doses (about 200 mg/kg) were administered, in aqueous solution.
Changes in splenic, hepatic, fecal and urinary iron in transfused
male mice treated with potential iron chelators for several days

Where [5] appears, read: higher dose, about 200 mg/kg i.p.

Turning to `O=C(NCCCN(CCCCN(CCCNC(=O)c1cccc(=O)n1O)C(=O)c1cccc(=O)n1O)C(=O)c1cccc(=O)n1O)c1cccc(=O)n1O` [3,4,3-HOPOCAM], the mortality at 168 h in data set [1] was in the range of 50 to 100%.
Regarding `O=C(NCCCCN(CCCNC(=O)c1cccc(=O)n1O)C(=O)c1cccc(=O)n1O)c1cccc(=O)n1O` [3,4-HOPOCAM], the mortality at 168 h in data set [1] lay within 50 to 100%.
Consider `O=C(NCCCNC(=O)c1cccc(=O)n1O)c1cccc(=O)n1O` [3-HOPOCAM], for which, in data set [2] (pH 7.4, 10^-5 M total ligand, 10^-6 M total iron, competition with EDTA), the “pM value (-log [Fe^+3 ])” value was found to be 21.7. Further, in the data set on transferrin, the “concentration at which iron was removed from transferrin” value is “approximately mM concentrations”. In addition, in the data set on transferrin (30 min., 1.6 mM solution), the “iron removed from transferrin” value is listed as “about 29%”.
For `O=C(O)CN(CCN(CC(=O)O)CC(=O)O)CCN(CC(=O)O)CC(=O)O` [CaNa3 --DTPA, reference compound], the “^238 Pu Excreta (urine and feces, one value)” value in data set [3] (ligand 30 μmole/kg i.p. at 1 hr, killed 24 hr after Pu) is reported as 70% of injected ^238 Pu.
In the case of `CC(=O)N(O)CCCCCNC(=O)CCC(=O)N(O)CCCCCNC(=O)CCC(=O)N(O)CCCCCNC(=O)c1cccc(=O)n1O` [DFHOPOCAM], in data set [3] (24 hr), the “newly injected Pu excreted in 24 hr” value worked out at 86%. The “Pu / actinide removal, in words” value in data set [3] was “extremely effective; also recorded: most effective removal of such ions”. Moreover, the “Pu / actinide removal, in words” value in data set [3] (listed as HOPOsubstituted desferrioxamine) was “most effective Pu removal agent”. Moreover, in data set [4] (20 mg/kg i.p.), the “Number Survivors” value is listed as 10/10; the “Percent Iron Changes vs. Control, Feces” value is “+21%”; the “Percent Iron Changes vs. Control, Liver” value was -28%; the “Percent Iron Changes vs. Control, Spleen” value was -11%. Besides, in data set [4] (20 mg/kg i.p.), the “Percent Iron Changes vs. Control, Urine” value is “+39%”; the “Potency vs. Standard” value was found to be 4.5; the “Toxic Signs” value was “none”. For the same compound, in data set [4] (200 mg/kg i.p.), the “Number Survivors” value was 10/10; the “Percent Iron Changes vs. Control, Feces” value was “+4%”; the “Percent Iron Changes vs. Control, Liver” value is given as -59%; the “Percent Iron Changes vs. Control, Spleen” value is listed as -17%. Also, in data set [4] (200 mg/kg i.p.), the “Percent Iron Changes vs. Control, Urine” value is reported as “+93%” and the “Potency vs. Standard” value is given as 0.8. For the same compound, the “damage to excretory pathways from excess metabolic iron” value in data set [4] (about 20 and about 200 mg/kg i.p., daily excreta, five-day recovery period) is “reversal of most of the damage to excretory pathways”. Moreover, in data set [4] (both low and high doses), the source of iron result is “predominantly the liver”. In addition, the “Potency relative to Desferal” value in data set [4] (dose not given) was “about 4.5”. In addition, in data set [4] (setting [5]), the “behavior and major organs” value is recorded as “not grossly affected”; the “change in fecal iron content, in words” value was “little change in iron content”; the “change in urine volume” value was -6%; the “decrease in liver iron” value stood at 59%. Also, in data set [4] (setting [5]), the “depression of fecal output” value was 24%, the “fall in liver weight” value was 14%, the “fall in spleen iron content” value stood at 17% and the “increase in spleen weight” value came out at 25%. In addition, in data set [4] (setting [5]), the “rise in urinary iron” value was found to be 93%. In data set [4] (higher dose, about 200 mg/kg i.p., compared with low dose), the “decrease in water imbibition” value was “about the same order of magnitude as that seen for the low dose”. Also, in data set [4] (iron excretion), the “major route of excretion” value is “through the kidneys”. Also, in data set [4] (low dose, about 20 mg/kg i.p.), the behavior entry is “not affected”; the “change in organ (spleen) weight, in words” value was “not accompanied by a significant change in organ weight”; the “decline in hepatic (liver) weight” value is reported as 8%; the “decline in splenic iron” value came out at 11%. In data set [4] (low dose, about 20 mg/kg i.p.), the “decrease in hepatic iron” value came out at 28%, the “fall in fecal output” value came out at 8%, the “increase in excretion of iron via the feces” value is reported as 21% and the “increase in spleen weight” value is on record as 4%. In addition, in data set [4] (low dose, about 20 mg/kg i.p.), the “increase in urinary iron” value is recorded as 39%, the “necropsy: size or color of major organs” value was “failed to reveal any changes in the size or color of major organs” and the “stimulation of urine production” value is 24%. Also, the “relative potency (highest fraction of iron excreted), ranking” value in data set [4] (mouse, in vivo) was “greatest”. Further, the “toxicity to the kidneys, ranking” value in data set [4] (of a number of compounds tested) is “least toxic to the kidneys”.
For the compound `CC(=O)N(O)CCCCCNC(=O)CCC(=O)N(O)CCCCCNC(=O)CCC(=O)N(O)CCCCCN` [Desferrioxamine, reference compound], in data set [4] (250 mg/kg i.p.), the “Number Survivors” value is 240/240 and 150/150; the “Toxic Signs” value is on record as “none”.
In the case of `O=C(NCc1cc(CNC(=O)c2cccc(=O)n2O)cc(CNC(=O)c2cccc(=O)n2O)c1)c1cccc(=O)n1O` [HOPO--MECAM], in data set [1], the mortality at 168 h was 50 to 100%.
Turning to “transferrin: transferrin, iron source in the iron removal test”, in data set [2] (pH 7.4, assuming [HCO3^- ]=0.024M), the “pM value (-log [Fe^+3 ]) of transferrin” value is on record as “about 23.6”.
